According to patent US6365631B1, “Method of treating sleep apnoea” (Knoll Pharmaceutical Company, priority 1999, dated 2002):

Experiments:
[1] = system: patients suffering from clinically relevant obesity, many with serious sleep apnoea problems; test: clinical study, computer supported arousal/apnoea recognition in subset of 36 of 150 obese patients; type: in vivo, human; conditions: Sibutramine 20 mg daily; week-12 vs week-1 (pre-treatment); subset of 36 patients
Procedure: The beneficial effects of the compounds of the present invention at doses of 15 mg and 20 mg daily may also be confirmed in a double-blind, randomised, placebo-controlled clinical trial using questionnaires or by recording Holter ecgs with a Rozin/GeTeMed tape recorder device for 24 to 36 hours pre and post treatment period, using IEC-I type tapes. The ecg data may be computer-processed to study arousals.
In a clinical study with 150 patients suffering from clinically relevant obesity, many of them with serious sleep apnoea problems, a subset of 36 patients was arbitrarily selected for computer supported arousal/apnoea recognition. Two consecutive nights were recorded at week-1 (pre-treatment) and week-12 of treatment, and the number of arousals per hour of sleep time was evaluated. […] Compared to placebo this is significant at a 5%-level (p=0.0227).

[2] = system: patients suffering from clinically relevant obesity (BMI>30) and sleep apnoea; test: open explorative study with 5 volunteer patients with obesity and sleep apnoea
Procedure: Study design: An open explorative study with 5 volunteer patients suffering from clinically relevant obesity (BMI>30) and sleep apnoea was performed. […] No other control treatment was applied.
Methods: Patients willing to lose weight who had obtained prescriptions for Reductil® (Knoll) from their doctor were asked to take part in this voluntary observational study. All patients were willing to change dietary habits during treatment, and to perform at least moderate physical training (twice a week at least half an hour). Patients were interviewed pre and post treatment, and their partners asked for their observations on snoring behaviour. The patients were asked for their own rating of severity of daytime sleepiness, and their partners for objective observations about frequency and heaviness of snoring as well as for their observations about apnoea signs.

[3] = 5 patients, 10 or 15 mg daily, 6 to 14 weeks

SMILES: CC(C)CC(N(C)C)C1(c2ccc(Cl)cc2)CCC1 (stereo not drawn) [sibutramine, N,N-dimethyl-1-[1-(4-chlorophenyl)cyclobutyl]-3-methylbutylamine]
- reduction of number of arousals per hour of sleep time [1]: clinically significant effect
- mean weight loss under treatment [2, 3]: 14 kg
- weight loss, span over patients [2, 3]: −7% to −22%
- mean weight loss under treatment (percent) ([2]; 5 patients, 10 or 15 mg/kg daily, 6 to 14 weeks): 14.6%
- Mean BMI at end of treatment ([2]; 5 patients, sibutramine 10 or 15 mg daily, 6 to 14 weeks, 34 before treatment): 29
- arousal index Al, mean after treatment ([2]; mean 23,5 before treatment): 10,0
- patients with clearly reduced daytime sleepiness ([2]; of 5 patients, after treatment): 4 out of 5
- patients reporting improved ease of breathing with closed mouth ([2]; of 5 patients, under treatment): 3 out of 5
- decrease of arousal index, span over patients ([2]; pre vs post treatment): −25% to −67%
- mean decrease of arousal index ([2]; pre vs post treatment): −57%
- daytime sleepiness scale after treatment, patient-reported ([2]; scale 0-3, 2,0 before treatment): 0,6
- snoring scale mean after treatment, observed by sleep companions ([2]; scale 0-3, mean score 2,2 before treatment): 1
